Values of other authors as cited in US12071673B2, “Methods of diagnosis, selection, and treatment of diseases and conditions caused by or associated with methanogens” (Cedars-Sinai Medical Center, priority 2013, dated 2024).

Tests used:
methanogens = conditions: retrospective study, 10 days; for reduction in methane: breath methane

For CO[C@H]1/C=C/O[C@@]2(C)Oc3c(C)c(O)c4c(O)c(c5c(nc6cc(C)ccn65)c4c3C2=O)NC(=O)/C(C)=C\C=C\[C@H](C)[C@H](O)[C@@H](C)[C@@H](O)[C@@H](C)[C@H](OC(C)=O)[C@@H]1C [rifaximin], the “reduction in constipation symptoms” value (methanogens) is given as 56% and the reduction in methane (methanogens) is given as 28%.

In the case of C [methane], the “reduction of proximal small bowel motility (average)” value (5 dogs, methane infused through mid-small bowel fistula) is given as 59% and the “slowing of small intestinal transit” value (in vivo animal study, methane infused into the small intestine) is given as 59%.

In the case of neomycin, the “reduction in constipation symptoms” value (methanogens) is listed as 63% and the reduction in methane (methanogens) is listed as 33%.
